Reference: ChEMBL document CHEMBL4004849, “Tetrazolylmethyl quinolines: Design, docking studies, synthesis, anticancer and antifungal analyses” (2017)
The source made the active and inactive calls. The rule behind the calls is not given here.

How the values were obtained:
Format in all cases: functional
K562 = assay: Growth inhibition of human K562 cells at 10^-5 M incubated for 48 hrs by sulforhodamine B assay relative to control
HT-29 = assay: Growth inhibition of human HT-29 cells at 10^-5 M incubated for 48 hrs by sulforhodamine B assay relative to control
SK-MEL-28 = assay: Growth inhibition of human SK-MEL-28 cells at 10^-5 M incubated for 48 hrs by sulforhodamine B assay relative to control
OVCAR-3 = assay: Growth inhibition of human OVCAR3 cells at 10^-5 M incubated for 48 hrs by sulforhodamine B assay relative to control
OVCAR-4 = assay: Growth inhibition of human OVCAR4 cells at 10^-5 M incubated for 48 hrs by sulforhodamine B assay relative to control
OVCAR-5 = assay: Growth inhibition of human OVCAR5 cells at 10^-5 M incubated for 48 hrs by sulforhodamine B assay relative to control
NCI/ADR-RES = assay: Growth inhibition of human NCI-ADR-RES cells at 10^-5 M incubated for 48 hrs by sulforhodamine B assay relative to control
786-0 = assay: Growth inhibition of human 786-0 cells at 10^-5 M incubated for 48 hrs by sulforhodamine B assay relative to control
DU-145 = assay: Growth inhibition of human DU145 cells at 10^-5 M incubated for 48 hrs by sulforhodamine B assay relative to control
MCF7 = assay: Growth inhibition of human MCF7 cells at 10^-5 M incubated for 48 hrs by sulforhodamine B assay relative to control
Hs-578T = assay: Growth inhibition of human Hs 578T cells at 10^-5 M incubated for 48 hrs by sulforhodamine B assay relative to control
MDA-MB-468 = assay: Growth inhibition of human MDA-MB-468 cells at 10^-5 M incubated for 48 hrs by sulforhodamine B assay relative to control
Aspergillus fumigatus = assay: Antifungal activity against Aspergillus fumigatus at 100 ug/ml by disc diffusion method; settings: read-out: IZ

Clc1nc2ccccc2cc1Cn1nnnc1Cc1ccccc1
growth inhibition (GI) (K562): Active
growth inhibition (GI) (HT-29): Active
growth inhibition (GI) (SK-MEL-28): Active
growth inhibition (GI) (OVCAR-3): Active
growth inhibition (GI) (OVCAR-4): Active
growth inhibition (GI) (OVCAR-5): Active
growth inhibition (GI) (NCI/ADR-RES): Active
growth inhibition (GI) (786-0): Active
growth inhibition (GI) (DU-145): Active
growth inhibition (GI) (MCF7): Active
growth inhibition (GI) (Hs-578T): Active
growth inhibition (GI) (MDA-MB-468): Active
zone of inhibition at 100 µg/mL (Aspergillus fumigatus): 14 mm
